Measured values: article PMC2730022 (Journal of medicinal chemistry, 2009)

Columns and labels:
[1] = system: KB cells; assay: Protection from growth inhibition by nucleosides and AICA in KB cells; type: cell-based, human
[2] = system: FRα; conditions: RT16 cells; folic acid = 1; cited from earlier work
[3] = system: FRβ; conditions: D4 cells; folic acid = 1; cited from earlier work

Compound | Growth in the presence of AICA at higher concentrations ([1]; AICA 320 μM, compound above 100 nM) | Protection by AICA from toxicity at low and medium concentrations ([1]; AICA 320 μM, compound ≤ 50 nM) | Protection by adenosine from growth inhibitory effects ([1]; adenosine 60 μM) | Effect of thymidine on growth inhibitory effects ([1]; thymidine 10 μM) | Relative binding affinity for FRα [2] | Relative binding affinity for FRβ [3]
Nc1nc2sc(CCCCc3ccc(C(=O)N[C@@H](CCC(=O)O)C(=O)O)cc3)cc2c(=O)[nH]1 [Compound 4, N-{4-[4-(2-amino-4-oxo-3,4-dihydrothieno[2,3-d]pyrimidin-6-yl)butyl]benzoyl}-L-glutamic acid] | still significantly inhibited | almost completely protected | completely protective | did not alter |  | 
Nc1nc2c(c(=O)[nH]1)N(C=O)C(CNc1ccc(C(=O)N[C@@H](CCC(=O)O)C(=O)O)cc1)CN2 (stereo partly drawn) [LCV, (6R,S) 5-formyl tetrahydrofolate] |  |  |  |  | 0.25-0.45 | < 0.01
